Key:
[1] = tested on: P388 murine leukemia cell line; test: Identification of cytotoxic agents: P388 cell viability (ATP-Lite); format: cell-based; conditions: Mus musculus; P388 cells, 72 hours, intracellular ATP (ATP-Lite), concentration required to inhibit growth by 50%
Procedure: A P388 murine leukemia cell line was obtained from NCI, Frederick, Md. P388 cells were cultured in RPMI-1640 supplemented with 10% fetal bovine serum, 2 mM Glutamax, 1 mM sodium pyruvate, 0.1 mM non-essential amino acids and 10 mM HEPES. Cells were grown at 37° C. in a humidified 5% CO2 atmosphere. Exponentially growing P388 cells were plated at 5,000 cells/well in a 96-well flat-bottomed microtiter plate (Corning, Costar #3595). […] Cellular viability was determined 72 hours later by measuring intracellular ATP with ATP-Lite assay system. The effect of compounds on cell viability was calculated by comparing the ATP levels of cells exposed to test compound with those of cells exposed to DMSO. A semi-log plot of relative ATP levels versus compound concentration was used to calculate the compound concentration required to inhibit growth by 50% (IC50). Data was analyzed by Prism software (GraphPad; San Diego, Calif.) by fitting it to a sigmoidal dose response curve.

[2] = tested on: P388/ADR cell lines (overexpress multidrug resistance pump MDR-1); test: Multidrug resistant cell assay: P388/ADR cell viability (ATP-lite); format: cell-based; conditions: Mus musculus, P388/ADR cells overexpressing MDR-1 (Pgp-1), 72 hours
Text: Cytotoxicity of compounds in multidrug resistant cells can be determined by administering compounds to cell lines that overexpress the multidrug resistance pump MDR-1 and determining the viability of the cell lines. P388/ADR cell lines are known to overexpress the multidrug resistance pump MDR-1 (also known as P-glycoprotein-1; Pgp-1).
P388/ADR cell lines are obtained from American Type Culture Collection (Manassas, Va.) and maintained in RPMI-1640 media supplemented with 10% FCS, 10 units/ml penicillin and streptomycin, 2 mM Glutamax and 1 mM sodium pyruvate (Invitrogen Corporation, Carlsbad, Calif.). For compound testing, cells are plated in 96 well dishes at a concentration of 1.5×10^4 cells/well. Cells are allowed to adhere to the plate overnight and then incubated with compounds at final concentrations ranging from 0.13 nM to 10 uM for 72 hours. Cell viability is then assessed using the ATP-lite reagent (Perkin Elmer, Foster City, Calif.). Plates are read on a Wallac Topcount luminescence reader (Perkin Elmer, Foster City, Calif.) and the results graphed in Prism software (Graphpad Software, Inc., San Diego, Calif.). Non-linear regression with variable slope analysis is performed to obtain IC50 concentration values.

| IC50 [2] [µM] | SMILES | IC50 [1] [µM] |
| --- | --- | --- |
| 0.48 | COc1ccc(N(C)c2ccnc(Cl)n2)cc1 [Example 1, (2-Chloro-pyrimidin-4-yl)-(4-methoxyphenyl)-methyl amine] | 0.28 |
| – | COC(=O)c1cc(N(C)c2ccc(OC)cc2)nc(Cl)n1 [Example 2, Methyl 2-chloro-6-[(4-methoxyphenyl)(methyl)amino]pyrimidine-4-carboxylate] | 9 |
| 0.078 | CCOC(=O)c1cnc(SC)nc1N(C)c1ccc(OC)cc1 [Example 3, Ethyl 4-[(4-methoxyphenyl)(methyl)amino]-2-(methylthio)pyrimidine-5-carboxylate] | 0.054 |
| 1.1 | COc1ccc(N(C)c2cc(C)nc(N(C)C)n2)cc1 [Example 4, N^4-(4-Methoxyphenyl)-N^2,N^2,N^4,6-tetramethylpyrimidine-2,4-diamine] | 1.06 |
| 6.2 | COc1ccc(N(C)c2ccnc(N(C)C)n2)cc1 [Example 5, N^4-(4-Methoxyphenyl)-N^2,N^2,N^4-trimethylpyrimidine-2,4-diamine] | 7.9 |
| – | COc1ccc(N(C)c2ccnc(C#N)n2)cc1 [Example 6, 4-[(4-Methoxyphenyl)(methyl)amino]pyrimidine-2-carbonitrile] | 6.8 |
| 3.9 | COc1ccc(N(C)c2cc(C)nc(C#N)n2)cc1 [Example 7, 4-[(4-Methoxyphenyl)(methyl)amino]-6-methylpyrimidine-2-carbonitrile] | 2.5 |
| 2.4 | COc1ccc(N(C)c2cc(Cl)nc(N)n2)cc1 [Example 8, 6-Chloro-N^4-(4-methoxyphenyl)-N^4-methylpyrimidine-2,4-diamine] | 1.9 |
| 3.1 | COc1ccc(N(C)c2ccnc(CN)n2)cc1 [Example 9, 2-(Aminomethyl)-N-(4-methoxyphenyl)-N-methylpyrimidin-4-amine] | 1.9 |
| 0.8 | COc1ccc(N(C)c2cc(-c3ccccc3)nc(C)n2)cc1 [Example 10] | 1.6 |
| 0.4 | COc1ccc(N(C)c2cc(C)nc(C)n2)cc1 [Example 11, (2,6-dimethyl-pyrimidin-4-yl)-(4-methoxyphenyl)-methylamine] | 0.31 |
| 0.062 | COc1ccc(N(C)c2nc(C)ncc2NS(=O)(=O)c2ccc(OC)cc2)cc1 [Example 12, 4-Methoxy-N-{4-[(4-methoxyphenyl)-methylamino]-2-methyl-pyrimidin-5-yl)-benzenesulfonamide] | 0.057 |
| 7.4 | COc1ccc(S(=O)(=O)Nc2cnc(C)nc2N(C)c2ccc(O)cc2)cc1 [Example 13, N-{4-[(4-hydroxyphenyl)-methylamino]-2-methyl-pyrimidin-5-yl)-4-methyoxy-benzenesulfonamide] | 1.4 |

Source: patent publication US20090280133A1, “PHARMACEUTICAL COMPOUNDS AS INHIBITORS OF CELL PROLIFERATION AND THE USE THEREOF” (Myriad Genetics, Incorporated, priority 2006, published 2009)
